Common to all, as to type: cell-based
Assay [1] relates to methicillin-resistant Staphylococcus aureus MRSA 18-575. Briefly: micro broth dilution MIC, MRSA 18-575. To be noted: read-out: The minimum inhibitory concentration, MRSA 18-575. An excerpt: (§1) Using micro broth dilution method, with ceftazidime and vancomycin as positive controls, test the minimum inhibitory concentration (MIC) of compounds 9, 11, and 14.
(§2) The experimental strains included drug-resistant gram-positive bacteria: methicillin-resistant Staphylococcus aureus MRSA 18-575, 18-596; drug-resistant gram-negative bacteria: multi-drug-resistant Pseudomonas aeruginosa MDR-PA 18-126, 18-756. The experimental strains were all donated by Huashan Hospital Affiliated to Fudan University (Fudan University Antibiotic Research Institute), and used after being identified by conventional methods.
(§3) The specific steps are as follows:
(§4) Preparation of MHB medium: Weigh 20.0 g of MHB medium, add it to 1L of distilled water, heat and boil until it is completely dissolved, divide it into conical flasks, autoclave at 121° C. for 15 minutes, and set aside.
(§5) Cultivate the experimental strains to the logarithmic growth phase: under aseptic conditions, inoculate the experimental strains into 100 mL of MHB medium, and place them in a constant temperature and humidity incubator at 37° C. for 20-22 hours for use.
(§6) Preparation of stock solution: Weigh the sample to be tested and dissolve it with 1% DMSO solution to prepare a stock solution with a concentration of 2560 μg/mL; weigh the positive control substance and dissolve it with sterile distilled water to prepare a stock solution with a concentration of 2560 μg/mL.
(§7) Bacterial suspension preparation: Under aseptic conditions, the experimental strains cultured to the logarithmic growth phase are calibrated to 0.5 McDonald's unit turbidity standard with MHB medium and diluted at a ratio of […] to prepare a concentration of 10^6 CFU/mL Bacterial suspension, spare.
(§8) Stock solution dilution and inoculation of experimental strains: under aseptic conditions, dilute the stock solution to a solution of 256 μg/mL. Take a sterile 96-well plate, add 100 μL of MHB medium to each well except for wells 1-3; add 100 μL of positive control solution to well 2 and 100 μL of compound sample solution to wells 3 and 4; Mix the sample solution in the well with the culture medium, and then pipet 100 μL to the fifth well. After mixing, pipet 100 μL to the sixth well, and then dilute to the tenth well by successive times, and then take 100 μL from the tenth well and discard it. The 11th well is a growth control without drugs; then, add 100 μL of the above-prepared bacterial suspension to each well, so that the final bacterial concentration in each well is 5×10^5 CFU/mL; at this point, the positive control concentration is 128 μg/mL, the concentration of the sample solution is 128, 64, 32, 16, 8, 4, 2, 1 μg/mL.
(§9) Incubation: Cover the 96-well plate that has been inoculated with experimental strains and place it in a constant temperature and humidity box at 37° C. for 20-22 hours.
(§10) Record the results as shown in FIGS. 1 to 10 (the holes are in order from left to right corresponding to positive, 128, 64, 32, 16, 8, 4, 2, 1, negative) and Table 1.

In assay [2] the test system is methicillin-resistant Staphylococcus aureus MRSA 18-596. Briefly: micro broth dilution MIC, MRSA 18-596.
From the text: as §1, §2, §3, §4, §5, §6, §7, §8, §9, §10

For assay [3], the system named is multi-drug-resistant Pseudomonas aeruginosa MDR-PA 18-126. Nature of the assay: micro broth dilution MIC, MDR-PA 18-126.
From the text: as §1, §2, §3, §4, §5, §6, §7, §8, §9, §10
(In broth dilution the organism is exposed to a series of concentrations in liquid medium.)

Assay [4] concerns multi-drug-resistant Pseudomonas aeruginosa MDR-PA 18-756. Nature of the assay: micro broth dilution MIC, MDR-PA 18-756. The conditions noted are these: read-out: The minimum inhibitory concentration, MDR-PA 18-756.
From the text: as §1, §2, §3, §4, §5, §6, §7
as §8, with “1 μg/mL. […]” for “1 μg/mL.”

Where [5] appears, read: MRSA, read-out: The minimum inhibitory concentration, MRSA 18-596.
The mark [6] stands for this setting: read-out: The minimum inhibitory concentration, MDR-PA 18-126.

Converted amounts (≈) assume the structure as drawn. Where two headings read alike, the source gives them in different places.

For `CCCCc1c[se]c(N)c1C#N` [Compound 14], the MIC is 128 mg/L (≈ 563 µM) in assay [1] (MRSA), 64 mg/L (≈ 282 µM) in assay [2] (setting [5]), 64 mg/L (≈ 282 µM) in assay [3] (setting [6]) and more than 128 mg/L in assay [4].

As for `CN[C@H](CC(C)C)C(=O)N[C@H]1C(=O)N[C@@H](CC(N)=O)C(=O)N[C@H]2C(=O)N[C@H]3C(=O)N[C@H](C(=O)N[C@H](C(=O)O)c4cc(O)cc(O)c4-c4cc3ccc4O)[C@H](O)c3ccc(c(Cl)c3)Oc3cc2cc(c3O[C@@H]2O[C@H](CO)[C@@H](O)[C@H](O)[C@H]2O[C@H]2C[C@](C)(N)[C@H](O)[C@H](C)O2)Oc2ccc(cc2Cl)[C@H]1O` [Vancomycin, reference compound], the MIC in assay [1] (MRSA) and in assay [2] (setting [5]) was 512 mg/L (≈ 353 µM) each time.

On to `N#Cc1c(N)[se]c2c1CCCC2` [Compound 9], for which the MIC in assay [1] (MRSA) was 128 mg/L (≈ 569 µM); in assay [2] (setting [5]), 128 mg/L (≈ 569 µM); in assay [3] (setting [6]), more than 128 mg/L; in assay [4], 128 mg/L (≈ 569 µM).

Regarding `N#Cc1c(N)[se]c2c1CCCCC2` [Compound 11], the MIC in assay [1] (MRSA) came to 32 mg/L (≈ 134 µM); in assay [2] (MRSA, read-out: MIC against drug-resistant gram-positive bacteria MRSA) it was 16 mg/L (≈ 66.9 µM); in assay [2] (setting [5]), 16 mg/L (≈ 66.9 µM); in assay [3] (read-out: MIC against MDR-PA), 64 mg/L (≈ 268 µM); in assay [3] (setting [6]), 64 mg/L (≈ 268 µM); in assay [4] it was 64 mg/L (≈ 268 µM).

In the case of `CC(C)(O/N=C(\C(=O)N[C@@H]1C(=O)N2C(C(=O)[O-])=C(C[n+]3ccccc3)CS[C@H]12)c1csc(N)n1)C(=O)O` [Ceftazidime, reference compound], the MIC in assay [1] (strain MRSA 18-575, MHB medium, 37° C., 20-22 hours) was 128 mg/L (≈ 234 µM); in assay [2] (strain MRSA 18-596, MHB medium, 37° C., 20-22 hours, read-out: The minimum inhibitory concentration, MRSA 18-596), 128 mg/L (≈ 234 µM); in assay [3] (strain MDR-PA 18-126, MHB medium, 37° C., 20-22 hours, read-out: The minimum inhibitory concentration, MDR-PA 18-126) it was 128 mg/L (≈ 234 µM); in assay [4] (strain MDR-PA 18-756, MHB medium, 37° C., 20-22 hours), 128 mg/L (≈ 234 µM).

The values above are taken from patent publication US20220356164A1, “2-AMINOSELENOPHEN COMPOUNDS WITH ANTI-DRUG RESISTANT BACTERIA ACTIVITY AND A METHOD OF PREPARING THE SAME” (ZHUHAI JINAN SELENIUM SOURCE NANOTECHNOLOGY CO., LTD., priority 2021, published 2022).
